In patent US10844044B2 (Vanderbilt University, priority 2018, dated 2020) one finds Ki and GI50 data, which are given here for 25 molecules.

The first test concerns the target WDR5 (Homo sapiens (Human), UniProt P61964). The test can be described thus: TR-FRET binding assay (displacement of 10mer-Thr-FAM probe from WDR5). As to conditions: read-out: Ki for Inhibition of WDR5 by TR-FRET assay. In general terms: In TR-FRET formats the signal depends on donor and acceptor labels being close together.
In the case of `N=C1SCCN1Cc1cc(C(=O)N[C@H](c2ccc(F)c(F)c2)C2CC2)cc(-c2cccnc2C(F)(F)F)c1` [Example 318, (S)—N-(Cyclopropyl(3,4-difluorophenyl)methyl)-3-((2-iminothiazolidin-3-yl)methyl)-5-(2-(trifluoromethyl)pyridin-3-yl)benzamide], the Ki turned out to be 0.29 nM. On the same count and under the same terms, as for `CCn1cc(-c2cc(CN3CCSC3=N)cc(C(=O)NCc3ccc(=O)n(C)c3)c2)c(C(F)(F)F)n1` [Example 323, 3-(1-Ethyl-3-(trifluoromethyl)-1H-pyrazol-4-yl)-5-((2-iminothiazolidin-3-yl)methyl)-N-((1-methyl-6-oxo-1,6-dihydropyridin-3-yl)methyl)benzamide], the figure is 1.8 nM; as for `Cc1cc([C@@H](NC(=O)c2cc(CN3CCSC3=N)cc(-c3cn(C)nc3C(F)(F)F)c2)C2CC2)ncc1F` [Example 326, (S)—N-(Cyclopropyl(5-fluoro-4-methylpyridin-2-yl)methyl)-3-((2-iminothiazolidin-3-yl)methyl)-5-(1-methyl-3-(trifluoromethyl)-1H-pyrazol-4-yl)benzamide], below 0.1 nM. On to `Cc1cc([C@@H](NC(=O)c2cc(Cn3cccc(F)c3=N)cc(-c3cc(C(F)(F)F)nn3C)c2)C2CC2)ccc1F` [Example 345, (S)—N-(Cyclopropyl (4-fluoro-3-methylphenyl)methyl)-3-((3-fluoro-2-iminopyridin-1(2H)-yl)methyl)-5-(1-methyl-3-(trifluoromethyl)-1H-pyrazol-5-yl)benzamide], for which the Ki amounted to 2.4 nM. Same read-out and setting: as for `Cc1cc([C@@H](NC(=O)c2cc(Cn3cc(F)ccc3=N)cc(-c3cn(C)nc3C(F)(F)F)c2)C2CC2)ccc1F` [Example 353, (S)—N-(cyclopropyl(4-fluoro-3-methylphenyl)methyl)-3-((5-fluoro-2-iminopyridin-1(2H)-yl)methyl)-5-(1-methyl-3-(trifluoromethyl)-1H-pyrazol-4-yl)benzamide], the figure is below 0.1 nM.

The same test, now with this note: read-out: Ki for Inhibition of WDR5 by TR-FRET assay; TR-FRET, 10mer-Thr-FAM probe, WDR5-His tag 2 nM, pH 7.0.
In the case of `CC(C)n1cc(-c2cc(CN3CCSC3=N)cc(C(=O)N[C@H](c3ccc(F)c(F)c3)C3CC3)c2)c(C(F)(F)F)n1` [Example 319, (S)—N-(Cyclopropyl(3,4-difluorophenyl)methyl)-3-((2-iminothiazolidin-3-yl)methyl)-5-(1-isopropyl-3-(trifluoromethyl)-1H-pyrazol-4-yl)benzamide], the Ki was found to be 0.32 nM.

As to `Cc1cc([C@@H](NC(=O)c2cc(Cn3ccccc3=N)cc(-c3cc(C(F)(F)F)nn3C)c2)C2CC2)ccc1F` [Example 346, (S)—N-(Cyclopropyl(4-fluoro-3-methylphenyl)methyl)-3-((2-iminopyridin-(2H)-yl)methyl)-5-(1-methyl-3-(trifluoromethyl)-1H-pyrazol-5-yl)benzamide], the Ki came out at 1.6 nM. `Cc1cc([C@@H](NC(=O)c2cc(Cn3cc(F)ccc3=N)cc(-c3cccnc3C(F)(F)F)c2)C2CC2)ccc1F` [Example 354, (S)—N-(cyclopropyl(4-fluoro-3-methylphenyl)methyl)-3-((5-fluoro-2-iminopyridin-1(2H)-yl)methyl)-5-(2-(trifluoromethyl)pyridin-3-yl)benzamide]: the Ki is below 0.1 nM. As for `Cc1ccnc(C(NC(=O)c2cc(Cn3ccn(C)c3=N)cc(-c3ccc(F)cc3C)n2)C2CC2)c1` (stereo not shown) [Example 356, N-(Cyclopropyl(4-methylpyridin-2-yl)methyl)-6-(4-fluoro-2-methylphenyl)-4-((2-imino-3-methyl-2,3-dihydro-1H-imidazol-1-yl)methyl)picolinamide], the Ki was 182 nM. Regarding `COc1ccnc(CNC(=O)c2cc(Cn3ccn(C)c3=N)cc(-c3ccc(F)cc3C)n2)c1` [Example 357, 6-(4-Fluoro-2-methylphenyl)-4-((2-imino-3-methyl-2,3-dihydro-1H-imidazol-1-yl)methyl)-N-((4-methoxypyridin-2-yl)methyl)picolinamide], the Ki was 1.3 nM.

As to `Cc1cc(F)ccc1-c1cc(Cn2ccn(C)c2=N)cc(C(=O)NCc2ccc(Cl)c(F)c2)n1` [Example 359, N-(4-Chloro-3-fluorobenzyl)-6-(4-fluoro-2-methylphenyl)-4-((2-imino-3-methyl-2,3-dihydro-1H-imidazol-1-yl)methyl)picolinamide], the Ki was 8.7 nM. Same read-out and setting: as for `Cc1cc(F)ccc1-c1cc(Cn2ccn(C)c2=N)cc(C(=O)N[C@H](C)c2ccc(F)c(C(F)(F)F)c2)n1` [Example 360, (R)-6-(4-fluoro-2-methylphenyl)-N-(1-(4-fluoro-3-(trifluoromethyl)phenyl)ethyl)-4-((2-imino-3-methyl-2,3-dihydro-1H-imidazol-1-yl)methyl)picolinamide], the figure is 1 nM; as for `Cc1cc([C@@H](NC(=O)c2cc(CN3CCCOC3=N)cc(-c3cccnc3C(F)(F)F)c2)C2CC2)ccc1F` [Example 362, (S)—N-(Cyclopropyl(4-fluoro-3-methylphenyl)methyl)-3-((2-imino-1,3-oxazinan-3-yl)methyl)-5-(2-(trifluoromethyl)pyridin-3-yl)benzamide], 0.72 nM; as for `Cc1cc([C@@H](NC(=O)c2cc(Cn3cnn(C)c3=N)cc(-c3cn(C)nc3C(F)(F)F)c2)C2CC2)ccc1F` [Example 363, (S)—N-(Cyclopropyl(4-fluoro-3-methylphenyl)methyl)-3-((5-imino-1-methyl-1,5-dihydro-4H-1,2,4-triazol-4-yl)methyl)-5-(1-methyl-3-(trifluoromethyl)-H-pyrazol-4-yl)benzamide], below 0.1 nM.

The next test has as its system MV4:11 human cancer cell lines. Put plainly: Anti-proliferative activity, CellTiter-Glo viability assay, 7 day protocol. Type of test: cell-based. The conditions noted are these: Homo sapiens, 168 h, MV4:11 cells, 7 day incubation, read-out: GI50 on cellular proliferation of MV4:11 human cancer cell lines. The method, then:
Viability assays are performed by dispensing […] into each well of an opaque 384-well plate and adding compounds at the indicated concentrations in a final volume of 32 μL and a final concentration of DMSO of 0.1% for all samples. After a set incubation period, 7 day protocol, the viability of cells in each well is assessed using the CellTiter-Glo assay (Promega), read on a GloMax 96 Microplane Luminometer (Promega). Serial dilutions of each cell type are included in all assays to generate standard curves and determine assay measurements are taken within the dynamic range of the instrument. GI50 values are calculated based on three biological replicates, each with three technical replicates. Data are expressed as mean plus/minus S.E.M.
In the case of `Cc1cc(CNC(=O)c2cc(Cn3ccn(C)c3=N)cc(-c3c(C)cc(F)cc3C)c2)ccc1Cl` [Example 59], the GI50 was 460 nM.

Still in this test, the particulars now being: Homo sapiens, MV4-11, 168 h, MV4:11 cells, 7 day incubation, read-out: GI50 on cellular proliferation of MV4:11 human cancer cell lines.
For `Cc1cc(F)ccc1-c1cc(Cn2ccn(C)c2=N)cc(C(=O)NCc2ccc(Cl)c(Cl)c2)n1` [Example 5, N-(3,4-dichlorobenzyl)-6-(4-fluoro-2-methylphenyl)-4-((2-imino-3-methyl-2,3-dihydro-1H-imidazol-1-yl)methyl)picolinamide], the GI50 stood at 240 nM. Consider `Cc1cc(-c2cc(Cn3ccn(C)c3=N)cc(C(=O)NCc3ccc(Cl)c(Cl)c3)c2)ccn1` [Example 22, N-(3,4-Dichlorobenzyl)-3-((2-imino-3-methyl-2,3-dihydro-1H-imidazol-1-yl)methyl)-5-(2-methylpyridin-4-yl)benzamide], for which the GI50 was 14000 nM.

With `COc1cnccc1-c1cc(Cn2ccn(C)c2=N)cc(C(=O)NCc2ccc(Cl)c(Cl)c2)c1` [Example 23, N-(3,4-Dichlorobenzyl)-3-((2-imino-3-methyl-2,3-dihydro-1H-imidazol-1-yl)methyl)-5-(3-methoxypyridin-4-yl)benzamide], the GI50 was found to be 6200 nM.

With `Cn1nccc1-c1cc(Cn2ccn(C)c2=N)cc(C(=O)NCc2ccc(Cl)c(Cl)c2)c1` [Example 26, N-(3,4-Dichlorobenzyl)-3-((2-imino-3-methyl-2,3-dihydro-1H-imidazol-1-yl)methyl)-5-(1-methyl-1H-pyrazol-5-yl)benzamide], the GI50 was found to be 790 nM. Still for that read-out and setting: with `Cc1cc([C@@H](C)NC(=O)c2cc(Cn3ccn(C)c3=N)cc(-c3ccc(F)cc3C)c2)ccc1F` [Example 29, (R)-4′-Fluoro-N-(1-(4-fluoro-3-methylphenyl)ethyl)-5-((2-imino-3-methyl-2,3-dihydro-imidazol-1-yl)methyl)-2′-methyl-[1,1′-biphenyl]-3-carboxamide] the figure was 780 nM; with `Cc1cc([C@H](C)NC(=O)c2cc(Cn3ccn(C)c3=N)cc(-c3ccc(F)cc3C)c2)ccc1F` [Example 30, (S)-4′-Fluoro-N-(1-(4-fluoro-3-methylphenyl)ethyl)-5-((2-imino-3-methyl-2,3-dihydro-1H-imidazol-1-yl)methyl)-2′-methyl-[1,1′-biphenyl]-3-carboxamide], 100 nM; with `Cc1cc(F)ccc1-c1cc(Cn2ccn(C)c2=N)cc(C(=O)N[C@@H](C)c2ccc(F)c(C(F)(F)F)c2)c1` [Example 31, (S)-4′-Fluoro-N-(1-(4-fluoro-3-(trifluoromethyl)phenyl)ethyl)-5-((2-imino-3-methyl-2,3-dihydro-1H-imidazol-1-yl)methyl)-2′-methyl-[1,1′-biphenyl]-3-carboxamide], 300 nM. The same measure, in the same setting: as for `Cc1cc(F)ccc1-c1cc(Cn2ccn(C)c2=N)cc(C(=O)N[C@H](C)c2ccc(F)c(C(F)(F)F)c2)c1` [Example 32, (R)-4′-Fluoro-N-(1-(4-fluoro-3-(trifluoromethyl)phenyl)ethyl)-5-((2-imino-3-methyl-2,3-dihydro-1H-imidazol-1-yl)methyl)-2′-methyl-[1,1′-biphenyl]-3-carboxamide], the figure is 1500 nM; as for `Cc1cc([C@H](NC(=O)c2cc(Cn3ccn(C)c3=N)cc(-c3ccc(F)cc3C)c2)C(F)(F)F)ccc1F` [Example 45, (S)-4′-fluoro-5-((2-imino-3-methyl-2,3-dihydro-1H-imidazol-1-yl)methyl)-2′-methyl-N-(2,2,2-trifluoro-1-(4-fluor-3-methylphenyl)ethyl)-[1,1′-biphenyl]-3-carboxamide], 1800 nM; as for `Cc1cc([C@@H](NC(=O)c2cc(Cn3ccn(C)c3=N)cc(-c3ccc(F)cc3C)c2)C2CC2)ccc1F` [Example 54, (S)—N-(Cyclopropyl(4-fluoro-3-methylphenyl)methyl)-4′-fluoro-5-((2-imino-3-methyl-2,3-dihydro-1H-imidazol-1-yl)methyl)-2′-methyl-[1,1′-biphenyl]-3-carboxamide], below 100 nM.

As a reminder, the Ki is a dissociation constant, usually derived from enzyme kinetics or from competition with a known ligand.
